According to paper PMC10572522, “A Designed Analog of an Antimicrobial Peptide, Crabrolin, Exhibits Enhanced Anti-Proliferative and In Vivo Antimicrobial Activity” (International Journal of Molecular Sciences, 2023):
Residues, ends and D or L forms follow the SMILES beside them.

Tests used:
S. aureus (NCTC 10788) = assay: Antimicrobial susceptibility assay (MIC/MBC); assay type: cell-based, Staphylococcus aureus; conditions: for MIC: MHB, 37 °C, 20 h
Protocol: (§1) Six bacteria were tested in this experiment to detect the antimicrobial effects of crabrolin and its derivatives, including S. aureus (NCTC 10788), MRSA (NCTC 12493), E. coli (ATCC 8739), K. pneumoniae (ATCC 43816), E. faecium (NTCC-12697), and P. aeruginosa (ATCC 9027). The tested bacteria were cultured in Mueller Hinton broth medium (MHB) with norfloxacin (20 mg/L) as a positive control. All bacteria were incubated at 37 °C overnight and diluted to 5 × 10^5 CFU/mL before treating with the peptides. Stock solutions of 51,200 µM peptides were prepared in phosphate-buffered saline (PBS) and further diluted by a factor of two to 100 µM. Next, 1 µL of each peptide solution was mixed with 99 µL of bacterial subculture in a 96-well plate, and the plate was incubated at 37 °C for 20 h. After culturing, the absorbance of each well in the 96-well plate was analyzed at 550 nm using a Synergy HT plate reader (BioliseBioTek, Winooski, VT, USA). […] Starting with the MIC value, 10 µL of the solution from each well was dripped onto Mueller Hinton agar (MHA) plates. The plates were cultured at 37 °C for 20 h. After culturing, the lowest concentration with no colony growth was regarded as the MBC.

E. coli (ATCC 8739) = assay: Antimicrobial susceptibility assay (MIC/MBC); assay type: cell-based, Escherichia coli; conditions: for MIC: MHB, 37 °C, 20 h
Protocol: as §1

MRSA (NCTC 12493) = assay: Antimicrobial susceptibility assay (MIC/MBC); assay type: cell-based, methicillin-resistant Staphylococcus aureus; conditions: for MIC: MHB, 37 °C, 20 h
Protocol: as §1

[1] = tested on: K. pneumoniae (ATCC 43816); assay: Antimicrobial susceptibility assay (MIC/MBC); assay type: cell-based, Klebsiella pneumoniae; conditions: for MIC: MHB, 37 °C, 20 h
Protocol: as §1

E. faecium (NTCC 12697) = assay: Antimicrobial susceptibility assay (MIC/MBC); assay type: cell-based, Enterococcus faecium; conditions: for MIC: MHB, 37 °C, 20 h
Protocol: as §1

[2] = tested on: P. aeruginosa (ATCC 9027); assay: Antimicrobial susceptibility assay (MIC/MBC); assay type: cell-based, Pseudomonas aeruginosa; conditions: for MIC: MHB, 37 °C, 20 h
Protocol: as §1

[3] = tested on: MRSA (NCTC 12493) biofilm; assay type: cell-based, methicillin-resistant Staphylococcus aureus; conditions: for MBIC: biofilm inhibitory rate more than 90%; for MBEC: eradication rate greater than 99.9%
Protocol: (§2) To measure the antibiofilm activity of crabrolin and its derivatives, four drug-resistant biofilm-forming strains, MRSA (NCTC 12493), K. pneumoniae (ATCC 43816), E. faecium (NTCC-12697), and P. aeruginosa (ATCC 9027), were used in this assay. Tryptic soy broth (TSB) (for the Gram-positive bacteria) and Luria–Bertani broth (LB) (for the Gram-negative bacteria) were used to culture the bacteria.
(§3) The mass of the biofilm in this assay was detected by the crystal violet staining method. First, 100 μL of 5 × 10^5 CFU/mL bacteria was incubated with 1 μL of different peptide solutions (ranging from 51200 μM to 100 μM) for 24 h at 37 °C with 200 rpm shaking. After the biofilm formation, 100 μL of PBS was used to rinse the biofilm twice. Next, 100 µL of methanol was added to fix the biofilm, and the biofilm was then dried. Thereafter, 100 μL of 0.1% crystal violet was added and left to stain for 15 min, and then the excess crystal violet was further rinsed by PBS. After the plate had air-dried, 30% glacial acetic acid was added to each well of the plate, and the plate was shaken for 15 min before the optical density (OD) value was measured at 595 nm using a Synergy HT plate reader. The MBIC value refers to the minimum concentration at which the biofilm inhibitory rate was more than 90%.
(§4) Different from measuring the MBIC value, to determine the MBEC value, 100 μL of the bacteria was first added to 96-well plates. After the biofilm was formed, the biofilm was rinsed with PBS twice to remove the planktonic cells, and then different concentrations of the drugs were added to the biofilm (the same as the MBIC assay). The mixture was incubated at 37 °C with shaking at 200 rpm. After 24 h of incubation, the mass of the biofilm was measured in the same way as the MBIC value, and the minimum concentration at which the eradication rate was greater than 99.9% was considered to be the MBEC value.

[4] = tested on: K. pneumoniae (ATCC 43816) biofilm; assay type: cell-based, Klebsiella pneumoniae; conditions: for MBIC: biofilm inhibitory rate more than 90%; for MBEC: eradication rate greater than 99.9%
Protocol: as §2, §3, §4

[5] = tested on: E. faecium (NTCC12697) biofilm; assay type: cell-based, Enterococcus faecium; conditions: for MBIC: biofilm inhibitory rate more than 90%; for MBEC: eradication rate greater than 99.9%
Protocol: as §2, §3, §4

[6] = tested on: P. aeruginosa (ATCC 9027) biofilm; assay type: cell-based, Pseudomonas aeruginosa; conditions: for MBIC: biofilm inhibitory rate more than 90%; for MBEC: eradication rate greater than 99.9%
Protocol: as §2, §3, §4

[7] = tested on: human breast cancer cell line MCF-7; assay: Anti-proliferative assay (MTT); assay type: cell-based; conditions: MCF-7, MTT, 24 h
Protocol: (§5) The human non-small-cell lung cancer line, H838, the human prostate carcinoma cell line, PC-3, the human glioblastoma astrocytoma, U251MG, the human breast cancer cell line, MCF-7, the human colorectal carcinoma cell line, HCT116, and the human keratinocyte cell line, HaCaT, were used to detect the anti-proliferative effects of the crabrolin and its derivatives in vitro. A total of 8000 cells were seeded in each well of a 96-well plate. After the cells had adhered to the wall, the cells were starved for 4 h. After the starvation, the cells were incubated with different concentrations of the drugs, ranging from 100 µM to 1 nM, for 24 h, with 0.1% Triton X-100 used as a positive control. Next, 10 µL of MTT (3-(4,5-dimethylthiazol-2-yl)-2,5-diphenyltetrazolium bromide) solution (5 mg/mL) was added to each well of the 96-well plate. After 2 h of incubation, 100 μL of DMSO-superseded medium was added to each well to dissolve the formazan crystals. Finally, the absorbance was detected using a Synergy HT plate reader at 570 nm.

[8] = tested on: human colorectal carcinoma cell line HCT-116; assay: Anti-proliferative assay (MTT); assay type: cell-based; conditions: HCT-116, MTT, 24 h
Protocol: as §5

[9] = tested on: human glioblastoma astrocytoma U251MG; assay: Anti-proliferative assay (MTT); assay type: cell-based; conditions: 24 h
Protocol: as §5

[10] = tested on: human keratinocyte cell line HaCaT; assay: Anti-proliferative assay (MTT); assay type: cell-based; conditions: HaCaT (normal keratinocytes), 24 h
Protocol: as §5

[11] = tested on: human non-small-cell lung cancer line H838; assay: Anti-proliferative assay (MTT); assay type: cell-based; conditions: 24 h
Protocol: as §5

[12] = tested on: human prostate carcinoma cell line PC-3; assay: Anti-proliferative assay (MTT); assay type: cell-based; conditions: PC3, MTT, 24 h
Protocol: as §5

Hemolysis assay = assay type: cell-based, horse; conditions: horse, erythrocytes (2% suspension); at the peptide's maximum MIC; relative to Triton X-100; read-out: Hemolysis under the Maximum MIC
Protocol: (§6) According to the procedures described in detail in a previous study, the debris and impurities of the erythrocytes were washed with PBS in advance to yield 2% of the erythrocyte suspension, and the drug concentration was diluted from 1024 µM to 2 µM with PBS [53]. The same amounts of the drug and the erythrocyte suspension were mixed and cultured at 37 °C for 2 h; 0.1% Triton X-100 (Sigma-Aldrich, St. Louis, MO, USA) was prepared as a positive control, and PBS was prepared as a negative control. After the incubation, the supernatant was transferred to a 96-well plate and then detected using a Synergy HT plate reader at 570 nm.

horse erythrocytes = assay: Hemolysis assay; assay type: cell-based; conditions: for HC10 (10% hemolytic concentration) / HC50 (50% hemolytic concentration): erythrocytes, 37 °C, 2 h
Protocol: as §6

| SMILES | MBC (S. aureus (NCTC 10788)) | MIC (S. aureus (NCTC 10788)) | MBC (E. coli (ATCC 8739)) | MIC (E. coli (ATCC 8739)) | MBC (MRSA (NCTC 12493)) | MIC (MRSA (NCTC 12493)) | MBC [1] | MIC [1] | MBC (E. faecium (NTCC 12697)) | MIC (E. faecium (NTCC 12697)) | MBC [2] | MIC [2] | MBIC [3] | MBEC [3] | MBIC [4] | MBEC [4] | MBIC [5] | MBEC [5] | MBIC [6] | MBEC [6] | other results |
| --- | --- | --- | --- | --- | --- | --- | --- | --- | --- | --- | --- | --- | --- | --- | --- | --- | --- | --- | --- | --- | --- |
| CC[C@H](C)[C@H](NC(=O)[C@H](CCCCN)NC(=O)[C@@H]1CCCN1C(=O)[C@H](CC(C)C)NC(=O)[C@@H](N)Cc1ccccc1)C(=O)N[C@@H](CC(C)C)C(=O)N[C@@H](CCCNC(=N)N)C(=O)N[C@@H](CCCCN)C(=O)N[C@H](C(=O)N[C@H](C(=O)N[C@H](C(=O)N[C@@H](C)C(=O)N[C@@H](CC(C)C)C(N)=O)[C@@H](C)O)C(C)C)[C@@H](C)CC [Crabrolin-4K, FLPKILRKIVTAL-NH2] (H-FLPKILRKIVTAL-NH2) | 4 µM | 2 µM | 8 µM | 4 µM | 16 µM | 8 µM | 32 µM | 16 µM | 64 µM | 32 µM | 32 µM | 16 µM | 16 µM | 128 µM | 16 µM | 256 µM | 16 µM | > 512 µM | 512/512 µM | 512/512 µM | IC50 [7]: 23.2 µM; IC50 [8]: 42.9 µM; IC50 [9]: 23.5 µM; IC50 [10]: 32.6 µM; IC50 [11]: 22.6 µM; IC50 [12]: 20.6 µM; hemolysis at 2 h (Hemolysis assay): 10.4%; HC10 (10% hemolytic concentration) (horse erythrocytes): 68.628 µM; HC50 (50% hemolytic concentration) (horse erythrocytes): 217.816 µM |
| CC[C@H](C)[C@H](NC(=O)[C@H](CCCNC(=N)N)NC(=O)[C@@H]1CCCN1C(=O)[C@H](CC(C)C)NC(=O)[C@@H](N)Cc1ccccc1)C(=O)N[C@@H](CC(C)C)C(=O)N[C@@H](CCCNC(=N)N)C(=O)N[C@@H](CCCCN)C(=O)N[C@H](C(=O)N[C@H](C(=O)N[C@H](C(=O)N[C@@H](C)C(=O)N[C@@H](CC(C)C)C(N)=O)[C@@H](C)O)C(C)C)[C@@H](C)CC [Crabrolin-4R, FLPRILRKIVTAL-NH2] (H-FLPRILRKIVTAL-NH2) | 4 µM | 2 µM | 4 µM | 4 µM | 8 µM | 4 µM | 8 µM | 8 µM | 32 µM | 16 µM | 16 µM | 16 µM | 8 µM | 64 µM | 16 µM | 128 µM | 16 µM | > 512 µM | 128 µM | 256 µM | IC50 [7]: 20.3 µM; IC50 [8]: 47 µM; IC50 [9]: 25.1 µM; IC50 [10]: 35.8 µM; IC50 [11]: 11.4 µM; IC50 [12]: 18 µM; hemolysis at 2 h (Hemolysis assay): 6.18%; HC10 (10% hemolytic concentration) (horse erythrocytes): 62.117 µM; HC50 (50% hemolytic concentration) (horse erythrocytes): 216.266 µM |
| CC[C@H](C)[C@H](NC(=O)[C@H](CC(C)C)NC(=O)[C@@H]1CCCN1C(=O)[C@H](CC(C)C)NC(=O)[C@@H](N)Cc1ccccc1)C(=O)N[C@@H](CC(C)C)C(=O)N[C@@H](CCCNC(=N)N)C(=O)N[C@@H](CCCCN)C(=O)N[C@@H](CCCNC(=N)N)C(=O)N[C@H](C(=O)N[C@H](C(=O)N[C@@H](C)C(=O)N[C@@H](CC(C)C)C(N)=O)[C@@H](C)O)C(C)C [Crabrolin-9R, FLPLILRKRVTAL-NH2] (H-FLPLILRKRVTAL-NH2) | > 512 µM | 256 µM | > 512 µM | 256 µM | > 512 µM | > 512 µM | > 512 µM | > 512 µM | > 512 µM | > 512 µM | > 512 µM | > 512 µM | >512/>512 µM | >512/>512 µM | >512/>512 µM | >512/>512 µM | >512/>512 µM | >512/>512 µM | >512/>512 µM | >512/>512 µM | IC50 [7]: 6340 µM; IC50 [8]: 1880 µM; IC50 [9]: 1140 µM; IC50 [10]: 5850 µM; IC50 [11]: 2740 µM; IC50 [12]: 354 µM; Hemolytic activity (in words) (horse erythrocytes; 1 to 512 μM): lost its hemolytic activity |
| CC[C@H](C)[C@H](NC(=O)[C@H](CCCNC(=N)N)NC(=O)[C@@H]1CCCN1C(=O)[C@H](CC(C)C)NC(=O)[C@@H](N)CCCNC(=N)N)C(=O)N[C@@H](CC(C)C)C(=O)N[C@@H](CCCNC(=N)N)C(=O)N[C@@H](CCCCN)C(=O)N[C@H](C(=O)N[C@H](C(=O)N[C@@H](CCCNC(=N)N)C(=O)N[C@@H](CCCNC(=N)N)C(=O)N[C@@H](CC(C)C)C(N)=O)C(C)C)[C@@H](C)CC [Crabrolin-AR, RLPRILRKIVRRL-NH2] (H-RLPRILRKIVRRL-NH2) | 8 µM | 4 µM | 4 µM | 2 µM | 8 µM | 4 µM | 16 µM | 8 µM | 32 µM | 16 µM | 16 µM | 4 µM | 8 µM | 512 µM | 8 µM | > 512 µM | 64 µM | > 512 µM | 16 µM | > 512 µM | IC50 [7]: 32.5 µM; IC50 [8]: 29.9 µM; IC50 [9]: 52 µM; IC50 [10]: 34.9 µM; IC50 [11]: 41.3 µM; IC50 [12]: 28.8 µM; hemolysis at 2 h (Hemolysis assay): 6.63%; HC10 (10% hemolytic concentration) (horse erythrocytes): 59.049 µM |
